Read-outs that look alike come from different tables or passages of the source.
How the values were obtained:
Assay type in all cases: in vivo
[1] = test system: Brown Dog Tick (Rhipicephalus sanguineus); experiment: Rapid screening protocol for topical application on brown dog ticks; conditions: for R. sanguineus Mortality (%) 48 h: Laboratory 2 F data; for mortality at 5 µg/tick: Rhipicephalus sanguineus, read-out: R. sanguineus Mortality (%) 24 h; for mortality at 5 µg/tick / Rhipicephalus sanguineus Mortality (%) 24 h: topical, 24 h; for Rhipicephalus sanguineus Mortality (%) 24 h: 10 μg of active per tick in 1 μL acetone, adult ticks, Laboratory 1 E data
Experimental: d) Rapid Screening Protocol for Topical Application on Brown Dog Ticks (Rhipicephalus sanguineus)
The aim of the test was to determine the presence of significant acaricidal activity in sample compounds or formulations when applied topically on brown dog ticks. A tick was defined as dead if it gave no apparent response when touched lightly and observed for 1 minute. […] Both permethrin and fipronil were employed as reference compounds. The insect species tested was the Brown Dog Tick (Rhipicephalus sanguineus). Mixed sex adult ticks were used for tests. The strain used was cultured by von Berky Veterinary Services, Woody Point, QLD, AU and supplied as unfed adult ticks (mixed sex). Ticks were maintained in controlled conditions (temp. 18°+2° C., humidity 75±5% RH).
Temperature was maintained at 25±1° C. and the humidity was ambient. […] Ticks were each treated on the abdomen with 1 μL of a single dose level of test sample in acetone; ten ticks were treated with solvent only (acetone) in each test. Tests were replicated 4 times (total of 40 ticks treated). […]

[2] = test system: cat flea (Ctenocephalides felis); experiment: whole plant or invertebrate; conditions: Ctenocephalides felis
Outline: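 Single-dose screen at 1.26 μg/cm^2: acetone solution dried for 24 h on a Coatasil-treated 159 mm^2 flask base, then 15 adult cat fleas aged 3-7 days per flask, four or more replicates, acetone control. Percent dead, meaning not moving or unable to right themselves, recorded after 8, 24 and/or 48 h at 25 °C and 75% RH.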

Haemonchus contortus = Haemonchus contortus larvacidal (larval development) assay; conditions: 144 h, read-out: Haemonchus contortus LD99
Outline: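 Nematode eggs placed on agar containing compound (12 two-fold dilutions, final 0.024–50 μg/ml) and left 6 days to develop to L3. LD99 is the lowest concentration inhibiting development of 99% of larvae, derived from well titre (2^n−1) and top concentration.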

[3] = test system: cat flea (Ctenocephalides felis); experiment: Ctenocephalides felis adulticide assay: dose response (LC50); conditions: Laboratory 1 C data
Excerpt: c) Ctenocephalides felis Adulticide Assay: C. felis Dose Response
The purpose of this example was to determine the LC50 when cat fleas were contacted with a glass surface treated with sample compounds or formulations prepared as described above. Mortality of fleas was defined as follows: fleas were considered dead if they didn't move or were on their sides and unable to walk or right themselves. LC50: Lethal Concentration 50—concentration of glass surface treatment at which 50% of the cat fleas were killed. The test species was the cat flea (Ctenocephalides felis). The strain used was obtained from external suppliers as pupae and held in the laboratory under testing conditions until the adults had emerged. Fifteen (15) fleas were used in a minimum of four replicates for each dose level (total of 60 fleas per dose level). The insects were selected to be in the adult life stage, aged between 3 and 7 days post emergence.
The compounds to be tested were dissolved in acetone just prior to testing. Samples of compounds were stored in a refrigerator (5±1° C.) unless otherwise specified. During the mortality testing, the temperature was maintained at 25+1° C. Humidity was maintained at 75±5%. The base (area=159 mm^2) of a 100 mL glass Erlenmeyer (conical) flask provided the treatment surface. Flasks were pretreated with Coatasil™ glass treatment to maximise bio-availability of test compounds by preventing them from binding to the glass surface.
Six dose levels (concentrations) of test sample, in the form of a serial dilution, were derived from a pilot study and covered a range that produced very low to very high mortality. The base of the 100 mL Erlenmeyer flask was treated with 0.5 mL of test sample in acetone and gently swirled. This volume was sufficient to cover the base of the flask. Flasks were left to dry for 24 hours before flea exposure. Adult cat fleas were lightly anaesthetised by cooling and then placed into a sorting chamber, which allowed fleas to revive and jump into the Erlenmeyer flasks. Fifteen (15)adult cat fleas were collected in each flask. The top of the flasks were then covered in Parafilm™ and small holes made to allow gas exchange. A 0.5 mL volume of acetone was applied to the base of an Erlenmeyer flask and the testing proceeded in the same manner described above. Cat fleas in the treatment containers were held under testing conditions for 24 hours. Mortality resulting from the treatments was recorded at 8 and 24 hours.

[4] = 8 h, read-out: C. felis Mortality (%) 8 h, 8 h, Laboratory 2 B data
[5] = 24 h, read-out: C. felis Mortality (%) 24 h, 24 h, Laboratory 2 B data
[6] = 24 h, read-out: Ctenocephalides felis Mortality (%) 24 h
[7] = 8 h, read-out: C. felis Mortality (%) 8 h, 8 h, Laboratory 1 A data
[8] = 24 h, read-out: C. felis Mortality (%) 24 h, 24 h, Laboratory 1 A data

Structure (SMILES)	R. sanguineus Mortality (%) 48 h [1] [%]	mortality at 1.26 µg/cm2, 1.26 µg/cm2 [2, 4] [%]	mortality at 1.26 µg/cm2, 1.26 µg/cm2 [2, 5] [%]	also measured
O=S(=O)(Nc1ccc(Cl)cc1/C(=N/OCC1CCCCC1)C1CCCCC1)C(F)(F)F [Compound 209]	22	38	93	–
C/C(=N\OCC1CCCO1)c1cc(Cl)ccc1NS(=O)(=O)C(F)(F)F (centres unmarked) [Compound 203]	95	98	98	–
CC/C(=N\OC(C)c1ccc(Cl)cc1)c1cc(Cl)ccc1NS(=O)(=O)C(F)(F)F (centres unmarked) [Compound 257]	–	5	96	mortality at 5 µg/tick [1]: 40%
CC/C(=N\OCc1ccccn1)c1cc(Cl)ccc1NS(=O)(=O)C(F)(F)F [Compound 204]	87	100	100	–
C/C(=N\Oc1ccc(F)cc1)c1ccc(C(F)(F)F)cc1NS(=O)(=O)C(F)(F)F [Compound 200, N-{2-[1-(4-fluorophenoxyimino)ethyl]-5-trifluoromethylphenyl}trifluoromethanesulfonamide]	17	93	100	–
C/C(=N\Oc1ccc(Cl)cc1)c1ccc(C(F)(F)F)cc1NS(=O)(=O)C(F)(F)F [Compound 199, N-{2-[1-(4-chlorophenoxyimino)ethyl]-5-trifluoromethylphenyl}trifluoromethanesulfonamide]	5	82	100	–
C/C(=N\OCC1CCCCC1)c1ccc(C(F)(F)F)cc1NS(=O)(=O)C(F)(F)F [Compound 217]	30	46	90	–
C/C(=N\OCc1ccc(C(F)(F)F)cc1)c1ccc(C(F)(F)F)cc1NS(=O)(=O)C(F)(F)F [Compound 219]	60	69	100	–
CC/C(=N\OCC1CCCCC1)c1ccc(C(F)(F)F)cc1NS(=O)(=O)C(F)(F)F [Compound 222]	32	27	96	–
CC/C(=N\OCc1cccnc1)c1cc(Cl)ccc1NS(=O)(=O)C(F)(F)F [Compound 206]	52	97	100	–
O=S(=O)(Nc1ccc(Cl)cc1-c1ccon1)C(F)(F)F [Compound 293]	–	–	–	Rhipicephalus sanguineus Mortality (%) 24 h [1]: 80%; mortality at 1.26 µg/cm2 ([2]; 8 h, read-out: Ctenocephalides felis Mortality (%) 8 h): 60%; mortality at 1.26 µg/cm2 [2, 6]: 100%
O=S(=O)(Nc1ccc(Cl)cc1/C(=N/OC1CCCC1)C1CCCCC1)C(F)(F)F [Compound 211]	90	46	100	–
C/C(=N\OCc1cccs1)c1cc(Cl)ccc1NS(=O)(=O)C(F)(F)F [Compound 190]	75	98	100	–
CC/C(=N\OCc1ccc(C(F)(F)F)cc1)c1ccc(C(F)(F)F)cc1NS(=O)(=O)C(F)(F)F [Compound 221]	67	44	100	–
CC/C(=N\OCc1ccc(Cl)cc1)c1cc(Cl)ccc1N(COC(=O)C(C)(C)C)S(=O)(=O)C(F)(F)F [Compound 303]	–	–	–	Rhipicephalus sanguineus Mortality (%) 24 h [1]: 2%; mortality at 1.26 µg/cm2 [2, 6]: 0%; mortality at 1.26 µg/cm2 ([2]; 48 h, read-out: Ctenocephalides felis Mortality (%) 48 h): 76%
CC/C(=N\OCC1CCCC1)c1cc(Cl)ccc1NS(=O)(=O)C(F)(F)F [Compound 197]	100	80	97	–
CC/C(=N\OCc1ccc(Cl)cc1)c1ccc(C(F)(F)F)cc1NS(=O)(=O)C(F)(F)F [Compound 220]	62	54	100	–
C/C(=N\OCc1ccc(Cl)cc1)c1ccc(C(F)(F)F)cc1NS(=O)(=O)C(F)(F)F [Compound 218]	75	90	100	–
CC(C)/C(=N\Oc1ccc(F)cc1)c1cc(Cl)ccc1NS(=O)(=O)C(F)(F)F [Compound 216]	72	97	100	–
CCO/N=C(/c1cc(Cl)ccc1NS(=O)(=O)C(F)(F)F)C1CCCCC1 [Compound 213]	90	53	100	–
CCC(O/N=C(\C)c1cc(Cl)ccc1NS(=O)(=O)C(F)(F)F)c1ccccc1 (centres unmarked) [Compound 255]	–	1	100	mortality at 5 µg/tick [1]: 22%
CC/C(=N\OCc1ccc(Cl)cc1Cl)c1cc(Cl)ccc1NS(=O)(=O)C(F)(F)F [Compound 74]	–	–	–	IC99 (Haemonchus contortus): 0.4 µg/mL; C. felis LC50 [3]: 0.2 μg/cm^2; mortality at 1.26 µg/cm2, 1.26 µg/cm2 [2, 7]: 94%
CC/C(=N\OCCOc1ccccc1)c1cc(Cl)ccc1NS(=O)(=O)C(F)(F)F [Compound 106]	–	–	–	IC99 (Haemonchus contortus): 11 µg/mL; C. felis LC50 [3]: 1.0 μg/cm^2; mortality at 1.26 µg/cm2, 1.26 µg/cm2 [2, 8]: 48%
CC/C(=N\OCc1ccc(Cl)c(Cl)c1)c1cc(Cl)ccc1NS(=O)(=O)C(F)(F)F [Compound 79]	–	–	–	IC99 (Haemonchus contortus): 0.6 µg/mL; C. felis LC50 [3]: 0.6 μg/cm^2; mortality at 1.26 µg/cm2, 1.26 µg/cm2 [2, 7]: 73%; mortality at 1.26 µg/cm2, 1.26 µg/cm2 [2, 8]: 100%
CCC/C(=N\OCc1ccc(Cl)cc1Cl)c1cc(Cl)ccc1NS(=O)(=O)C(F)(F)F [Compound 100, N-{4-chloro-2-[1-(2,4-dichlorobenzyloxyimino)butyl]}trifluoromethanesulfonamide]	–	–	–	IC99 (Haemonchus contortus): 1.8 µg/mL; C. felis LC50 [3]: 0.4 μg/cm^2; mortality at 1.26 µg/cm2, 1.26 µg/cm2 [2, 7]: 58%; mortality at 1.26 µg/cm2, 1.26 µg/cm2 [2, 8]: 88%

Source: US7312248B2, “Control of parasites in animals by the use of novel trifluoromethanesulfonanilide oxime ether derivatives” (Schering-Plough Animal Health Corporation, priority 2004, dated 2007)
